From patent US4638005A, “Monoquaternized pyrazinium compounds and their use as electron carriers in photosynthetic processes” (The Coca-Cola Company, priority 1983, dated 1987)

Assays:
[1] = Polarographic half-wave potential (first wave reduction); assay type: physicochemical; conditions: 0.1 M phosphate buffer pH 7.55, 25° C.
Text: Sci., 65, 1471(1976). Therefore, it was of interest to measure polarographically the half-wave potentials of the several pyrazinium salts under consideration, to determine the possible effect of structure upon their redox potentials.

[2] = target: T1, nitrogenase (Azotobacter vinelandii, UniProt P00459); assay: Chloroplast-coupled reduction of acetylene to ethylene by nitrogenase (electron carrier bioassay of Benemann); assay type: biochemical; conditions: for ACTIVITY RELATIVE TO FERREDOXIN (%) / ACTIVITY (nmoles C2 H4 /mg protein/min): Table I; for ACTIVITY RELATIVE TO FERREDOXIN (%): acetylene reduction to ethylene; for ACTIVITY (nmoles C2 H4 /mg protein/min): illuminated spinach chloroplasts, synthetic carriers 2 mM, clostridial ferredoxin 0.2 mM; for ETHYLENE FORMATION % Ferredoxin Activity: Table III ranking; for % FERREDOXIN ACTIVITY: Table IV, acetylene reduction
T1 construct: the nitrogenase sample was prepared from a culture of Azotobacter vinelandii; endogenous in cells; host or cells: Azotobacter vinelandii culture; French press lysate, 10,000 x g supernatant (crude)
T1 sequence (P00459 2-290 limits assumed): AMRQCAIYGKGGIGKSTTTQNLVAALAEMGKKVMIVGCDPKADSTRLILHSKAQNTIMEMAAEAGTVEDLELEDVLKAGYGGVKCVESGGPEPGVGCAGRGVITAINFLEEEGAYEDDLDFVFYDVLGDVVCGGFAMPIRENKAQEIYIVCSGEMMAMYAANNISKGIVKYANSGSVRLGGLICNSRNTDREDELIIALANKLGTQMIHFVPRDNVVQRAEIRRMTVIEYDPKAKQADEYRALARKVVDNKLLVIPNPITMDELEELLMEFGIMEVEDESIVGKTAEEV
Protocol: The activity of the pyrazinium compounds as electron carriers in an illuminated photocouple process using isolated chloroplasts and the reductive enzyme catalyst nitrogenease has been determined using the bioassay of Benemann, et al., Proc. Natl. Acad. Sci. USA, 64, 1079(1969). In this method, the carrier activity is measured as a function of nitrogenase reduction of acetylene to ethylene, the rate of production of ethylene being the direct measurement.
(§1) For the bioassay, the nitrogenase sample was prepared from a culture of Azotobacter vinelandii grown to a cell density of about 1 g/l. The cells harvested by centrifugation were broken in a French press, cell debris spun off at 10,000 XG for 1 hr., and the supernatant containing 40 mg/ml protein was used in the bioassay experiments. […] chloroplasts from spinach leaves as described by Benemann were also used. The synthetic carriers were tested in aqueous solutions at concentrations of 2 mM, while the standard, clostridial ferredoxin, was used in 0.2 mM aqueous solution. The concentrations of carriers in the assay mixtures were chosen so as to guarantee carrier saturation conditions. Thus, the observed differences in rates of ethylene production from the substrate acetylene were assigned directly to variations in the efficiency of electron transfer from the illuminated chloroplast to the nitrogenase. The results obtained for acetylene reduction (nitrogen fixation) using the pyrazinium compounds of Examples 1 through 42 are summarized in Table I and are expressed as nmoles of ethylene produced per mg protein per minute.

[3] = target: T1, nitrogenase; assay: Chloroplast-coupled evolution of hydrogen by nitrogenase in the absence of substrate; assay type: biochemical; conditions: Table II, hydrogen evolution; for ACTIVITY (nmoles H2 /mg protein/min): no nitrogen or acetylene, synthetic carriers 2 mM, ferredoxin 0.2 mM
Protocol: as §1
It has been recognized for sometime the connection existing between hydrogen metabolism and nitrogen fixation. […] When nitrogenase was purified extensively, as mentioned above, it became apparent that in addition to nitrogen, nitrogenase also catalyzed the reduction of protons. The evolution of hydrogen is particularly active in the absence of the normal substrates for nitrogenase (nitrogen, acetylene, cyanide, azide, etc.), and is dependent upon a strong reductant and adenosine triphosphate hydrolysis. Since hydrogen evolution is not inhibited by CO, but reduction of nitrogen and other substrates is, the reduction of protons presumably occurs at a site other than the site of nitrogen reduction, H. C. Winter, et. al., Ann Rev. Biochem, 45, 409 (1976). Accordingly, with the same bioassay system and with exclusion of nitrogen, and acetylene, the activity of the pyrazinium compounds to act as carriers for production of hydrogen has been determined.
The results of this study, which are summarized in Table II, indicate that the pyrazinium salts that mediate the reduction of acetylene with electrons from the photoexcited chloroplast, are also mediating the reduction of protons by the nitrogenase.

[4] = cited from earlier work

Compound: 1-Methyl-3(2)-hydroxymethyl-6(5)-methylpyrazinium iodide [Compound 500]
- E1/2 vs. SCE (mV) [1]: -751 mV
- ACTIVITY RELATIVE TO FERREDOXIN (%) [2]: 22%
- ACTIVITY (nmoles C2 H4 /mg protein/min) [2]: 3.0 nmoles C2 H4 /mg protein/min
- ETHYLENE FORMATION % Ferredoxin Activity [2]: 22%
- % FERREDOXIN ACTIVITY [2]: 22%
- ACTIVITY RELATIVE TO FERREDOXIN (%) [3]: 46%
- ACTIVITY (nmoles H2 /mg protein/min) [3]: 12.3 nmoles H2 /mg protein/min

Compound: C[n+]1ccnc(C(O)CO)c1.[I-] (centres unmarked) [Compound 2200, 1-Methyl-3-(1,2-dihydroxyethyl)pyrazinium iodide]
- E1/2 vs. SCE (mV) [1]: -704 mV
- ACTIVITY RELATIVE TO FERREDOXIN (%) [2]: 55%
- ACTIVITY (nmoles C2 H4 /mg protein/min) [2]: 7.5 nmoles C2 H4 /mg protein/min
- ETHYLENE FORMATION % Ferredoxin Activity [2]: 55%
- % FERREDOXIN ACTIVITY [2]: 55%
- ACTIVITY RELATIVE TO FERREDOXIN (%) [3]: 98%
- ACTIVITY (nmoles H2 /mg protein/min) [3]: 26.2 nmoles H2 /mg protein/min

Compound: C[n+]1ccnc(C(=O)O)c1 [Compound 4400]
- E1/2 vs. SCE (mV) [1]: -613 mV
- ACTIVITY RELATIVE TO FERREDOXIN (%) [2]: 0%
- ACTIVITY (nmoles C2 H4 /mg protein/min) [2]: 0.0 nmoles C2 H4 /mg protein/min
- ETHYLENE FORMATION % Ferredoxin Activity [2]: 0%
- % FERREDOXIN ACTIVITY [2]: 0%
- ACTIVITY RELATIVE TO FERREDOXIN (%) [3]: 0%
- ACTIVITY (nmoles H2 /mg protein/min) [3]: 0.0 nmoles H2 /mg protein/min

Compound: O=C(O)CC[n+]1ccncc1.[Br-] [Compound 800, 1-(2-Carboxyethyl)pyrazinium bromide]
- E1/2 vs. SCE (mV) [1]: -625 mV
- ACTIVITY RELATIVE TO FERREDOXIN (%) [2]: 50%
- ACTIVITY (nmoles C2 H4 /mg protein/min) [2]: 6.8 nmoles C2 H4 /mg protein/min
- ETHYLENE FORMATION % Ferredoxin Activity [2]: 50%
- % FERREDOXIN ACTIVITY [2]: 50%
- ACTIVITY RELATIVE TO FERREDOXIN (%) [3]: 28%
- ACTIVITY (nmoles H2 /mg protein/min) [3]: 7.5 nmoles H2 /mg protein/min

Compound: CC(=O)NCCc1c[n+](C)ccn1.[I-] [Compound 3800, 1-Methyl-3-(2-acetamidoethyl)pyrazinium iodide]
- E1/2 vs. SCE (mV) [1]: -681 mV
- ACTIVITY RELATIVE TO FERREDOXIN (%) [2]: 15%
- ACTIVITY (nmoles C2 H4 /mg protein/min) [2]: 2.0 nmoles C2 H4 /mg protein/min
- ETHYLENE FORMATION % Ferredoxin Activity [2]: 15%
- % FERREDOXIN ACTIVITY [2]: 15%
- ACTIVITY RELATIVE TO FERREDOXIN (%) [3]: 22%
- ACTIVITY (nmoles H2 /mg protein/min) [3]: 5.8 nmoles H2 /mg protein/min

Compound: C[n+]1ccnc(S(=O)(=O)[O-])c1 [Compound 2000]
- E1/2 vs. SCE (mV) [1]: -573 mV
- ACTIVITY RELATIVE TO FERREDOXIN (%) [2]: 61%
- ACTIVITY (nmoles C2 H4 /mg protein/min) [2]: 8.3 nmoles C2 H4 /mg protein/min
- ETHYLENE FORMATION % Ferredoxin Activity [2]: 61%
- % FERREDOXIN ACTIVITY [2]: 61%
- ACTIVITY RELATIVE TO FERREDOXIN (%) [3]: 100%
- ACTIVITY (nmoles H2 /mg protein/min) [3]: 26.6 nmoles H2 /mg protein/min

Compound: C[n+]1ccnc(CCCCS(=O)(=O)[O-])c1 [Compound 1801]
- E1/2 vs. SCE (mV) [1]: -676 mV
- ACTIVITY RELATIVE TO FERREDOXIN (%) [2]: 79%
- ACTIVITY (nmoles C2 H4 /mg protein/min) [2]: 10.7 nmoles C2 H4 /mg protein/min
- ETHYLENE FORMATION % Ferredoxin Activity [2]: 79%
- % FERREDOXIN ACTIVITY [2]: 79%
- ACTIVITY RELATIVE TO FERREDOXIN (%) [3]: 106%
- ACTIVITY (nmoles H2 /mg protein/min) [3]: 28.4 nmoles H2 /mg protein/min

Compound: CCC(=O)Cc1c[n+](C)ccn1 [Compound 3500, 1-Methyl-3-(2-oxybutyl)pyrazinium iodide]
- E1/2 vs. SCE (mV) [1]: -575 mV
- ACTIVITY RELATIVE TO FERREDOXIN (%) [2]: 5%
- ACTIVITY (nmoles C2 H4 /mg protein/min) [2]: 0.7 nmoles C2 H4 /mg protein/min
- ETHYLENE FORMATION % Ferredoxin Activity [2]: 5%
- % FERREDOXIN ACTIVITY [2]: 5%
- ACTIVITY RELATIVE TO FERREDOXIN (%) [3]: 19%
- ACTIVITY (nmoles H2 /mg protein/min) [3]: 5.0 nmoles H2 /mg protein/min

Compound: Clostridial Ferredoxin: the standard, clostridial ferredoxin; natural protein electron carrier, used in 0.2 mM aqueous solution (AYKIADSCVSCGACASECPVNAISQGDSIFVIDADTCIDCGNCANVCPVGAPVQE; UniProt P00195 2-56, looked up) [reference compound]
- midpoint potential ([4]; natural electron carriers for the nitrogenase): -570 mV
- half-wave potential ([4]; pH 7.52): -570 mV
- E1/2 vs. SCE (mV) [1]: -570 mV
- ACTIVITY RELATIVE TO FERREDOXIN (%) [2]: 100%
- ACTIVITY (nmoles C2 H4 /mg protein/min) [2]: 13.5 nmoles C2 H4 /mg protein/min
- ETHYLENE FORMATION % Ferredoxin Activity [2]: 100%
- % FERREDOXIN ACTIVITY [2]: 100%
- ACTIVITY RELATIVE TO FERREDOXIN (%) [3]: 100%
- ACTIVITY (nmoles H2 /mg protein/min) [3]: 26.7 nmoles H2 /mg protein/min

Compound: Cc1c[n+](C)ccn1 [Compound 4300]
- E1/2 vs. SCE (mV) [1]: -696 mV
- ACTIVITY RELATIVE TO FERREDOXIN (%) [2]: 5%
- ACTIVITY (nmoles C2 H4 /mg protein/min) [2]: 0.7 nmoles C2 H4 /mg protein/min
- ETHYLENE FORMATION % Ferredoxin Activity [2]: 5%
- % FERREDOXIN ACTIVITY [2]: 5%
- ACTIVITY RELATIVE TO FERREDOXIN (%) [3]: 14%
- ACTIVITY (nmoles H2 /mg protein/min) [3]: 3.7 nmoles H2 /mg protein/min

Compound: CCCCc1c[n+](C)ccn1 [Compound 5000]
- E1/2 vs. SCE (mV) [1]: -676 mV
- ACTIVITY RELATIVE TO FERREDOXIN (%) [2]: 0%
- ACTIVITY (nmoles C2 H4 /mg protein/min) [2]: 0.0 nmoles C2 H4 /mg protein/min
- ETHYLENE FORMATION % Ferredoxin Activity [2]: 0%
- % FERREDOXIN ACTIVITY [2]: 0%
- ACTIVITY RELATIVE TO FERREDOXIN (%) [3]: 0%
- ACTIVITY (nmoles H2 /mg protein/min) [3]: 0.0 nmoles H2 /mg protein/min

Compound: Cc1c[n+](C)cc(CS(=O)(=O)[O-])n1 [Compound 3000]
- E1/2 vs. SCE (mV) [1]: -738 mV
- ACTIVITY RELATIVE TO FERREDOXIN (%) [2]: 99%
- ACTIVITY (nmoles C2 H4 /mg protein/min) [2]: 13.4 nmoles C2 H4 /mg protein/min
- ETHYLENE FORMATION % Ferredoxin Activity [2]: 99%
- % FERREDOXIN ACTIVITY [2]: 99%
- ACTIVITY RELATIVE TO FERREDOXIN (%) [3]: 124%
- ACTIVITY (nmoles H2 /mg protein/min) [3]: 33.1 nmoles H2 /mg protein/min

Compound: C[n+]1ccnc(CC(C(O)CO)S(=O)(=O)[O-])c1 (centres unmarked) [Compound 4100]
- E1/2 vs. SCE (mV) [1]: -720 mV
- ACTIVITY RELATIVE TO FERREDOXIN (%) [2]: 110%
- ACTIVITY (nmoles C2 H4 /mg protein/min) [2]: 14.8 nmoles C2 H4 /mg protein/min
- ETHYLENE FORMATION % Ferredoxin Activity [2]: 110%
- % FERREDOXIN ACTIVITY [2]: 110%
- ACTIVITY RELATIVE TO FERREDOXIN (%) [3]: 73%
- ACTIVITY (nmoles H2 /mg protein/min) [3]: 19.4 nmoles H2 /mg protein/min

Compound: CC(c1c[n+](C)ccn1)S(=O)(=O)[O-] (centres unmarked) [Compound 2400]
- E1/2 vs. SCE (mV) [1]: -701 mV
- ACTIVITY RELATIVE TO FERREDOXIN (%) [2]: 105%
- ACTIVITY (nmoles C2 H4 /mg protein/min) [2]: 14.2 nmoles C2 H4 /mg protein/min
- ETHYLENE FORMATION % Ferredoxin Activity [2]: 105%
- % FERREDOXIN ACTIVITY [2]: 105%
- ACTIVITY RELATIVE TO FERREDOXIN (%) [3]: 128%
- ACTIVITY (nmoles H2 /mg protein/min) [3]: 34.1 nmoles H2 /mg protein/min

Compound: CCC(Cc1c[n+](C)ccn1)S(=O)(=O)[O-] (centres unmarked) [Compound 1000]
- E1/2 vs. SCE (mV) [1]: -710 mV
- ACTIVITY RELATIVE TO FERREDOXIN (%) [2]: 95%
- ACTIVITY (nmoles C2 H4 /mg protein/min) [2]: 12.8 nmoles C2 H4 /mg protein/min
- ETHYLENE FORMATION % Ferredoxin Activity [2]: 95%
- % FERREDOXIN ACTIVITY [2]: 95%
- ACTIVITY RELATIVE TO FERREDOXIN (%) [3]: 73%
- ACTIVITY (nmoles H2 /mg protein/min) [3]: 19.5 nmoles H2 /mg protein/min
